Experimental data published in ChEMBL document CHEMBL1144210, “Synthesis of all-trans anandamide: a substrate for fatty acid amide hydrolase with dual effects on rabbit platelet activation” (Bioorg Med Chem, 2008).
Active and inactive are the calls of the source. No cut-off for these calls is given here.

Assays:
Platelet [1] = experiment: Induction of platelet aggregation in New Zealand white rabbit ear vein plasma in presence of PMSF; assay type: functional, Oryctolagus cuniculus
Oryctolagus cuniculus [2] = organism: Oryctolagus cuniculus; experiment: Inhibition of FAAH in New Zealand white rabbit ear vein platelet assessed as [3H]anandamide hydrolysis at 7.5 uM
Platelet [3] = experiment: Induction of platelet aggregation in New Zealand white rabbit ear vein plasma at 18 uM to 70 uM; assay type: functional, cell-based; conditions: Oryctolagus cuniculus
Oryctolagus cuniculus [4] = organism: Oryctolagus cuniculus; experiment: Inhibition of FAAH in New Zealand white rabbit ear vein platelets assessed as [3H]anandamide hydrolysis at 1.5 uM
Platelet [5] = experiment: Induction of in New Zealand white rabbit ear vein plasma in presence of URB597; assay type: functional, cell-based; conditions: Oryctolagus cuniculus
Platelet [6] = experiment: Induction of platelet aggregation in New Zealand white rabbit ear vein plasma in presence of aspirin; assay type: functional, cell-based; conditions: Oryctolagus cuniculus
Platelet [7] = experiment: Induction of platelet aggregation in New Zealand white rabbit ear vein plasma assessed as LDH activity at 0.36 mM; assay type: functional, cell-based; conditions: Oryctolagus cuniculus
Platelet [8] = experiment: Induction of platelet aggregation in New Zealand white rabbit ear vein plasma at 100 uM to 1000 uM; assay type: functional, cell-based; conditions: Oryctolagus cuniculus
Platelet [9] = experiment: Inhibition of PAF-induced platelet aggregation in New Zealand white rabbit ear vein plasma; assay type: functional, cell-based; conditions: Oryctolagus cuniculus
Platelet [10] = experiment: Induction of platelet aggregation in New Zealand white rabbit ear vein plasma in presence of indomethacin; assay type: functional, cell-based; conditions: Oryctolagus cuniculus

Compound	inhibition (INH) (Platelet [1]) [%]	Activity (Oryctolagus cuniculus [2])	Activity (Platelet [3])	Activity (Oryctolagus cuniculus [4])	Activity (Platelet [5])	Activity (Platelet [6])	Activity (Platelet [7])	Activity (Platelet [8])	IC50 (Platelet [9]) [µM]	Activity (Platelet [10])
CCCCC/C=C/C/C=C/C/C=C/C/C=C/CCCC(=O)NCCO	20	Active	Dose-dependent effect	Active	inactive	Active	Active	Dose-dependent effect	4.7	Active
CCCCC/C=C\C/C=C\C/C=C\C/C=C\CCCC(=O)NCCO	–	Active	–	Active	–	–	Dose-dependent effect	–	–	–
